# Data as given in patent publication US6875418B2, “Method of early detection of Duchenne muscular dystrophy and other neuromuscular disease” (Mouse Specifics, Inc., priority 2001, dated 2005).
# Key:
# nNOS -/- mice [1] = assay: Autonomic blockade, ECG heart rate and heart-rate variability in conscious nNOS -/- mice
# C57 mice [2] = assay: Autonomic blockade, ECG heart rate and heart-rate variability in conscious C57 control mice; type: in vivo, mouse
# Protocol: (§1) Male control C57BL/10ScSn (C57, n=15) and male mutant (mdx, n=15) mice (10-12 weeks old) were obtained from The Jackson Laboratory, Bar Harbor, Me. The animals were housed in standard conditions within the Animal Resource Facility at the Beth Israel Deaconess Medical Center. Handling and care of mice were consistent with federal and institutional guidelines.
# (§2) ECGs were recorded in conscious mice as follows. Briefly, mice were gently removed from their cages and positioned on the ECG recording platform (AnonyMOUSE, Mouse Specifics, Inc., Boston, Mass.). An array of gel-coated ECG electrodes were embedded in the floor of the platform and spaced to provide contact between the electrodes and animals' paws. The electrodes were connected to an amplifier by three shielded conductive leads. As even modest handling of mice induces significant alterations in heart-rate, each mouse was permitted to acclimatize for 10 min prior to collection of baseline data. The signals were digitized with 16-bit precision at a sampling rate of 2000 samples/second. When mice were sitting or otherwise positioned such that the paws were not in contact with three electrodes, the output from the amplifier was discarded. Only data from continuous recordings of 15-25 ECG signals were used in the analyses.
# Analyses of the ECGs were performed as described as follows. Each signal was analyzed using e-MOUSE, internet-based physiologic waveform analyses software. The program incorporates Fourier analyses and linear time-invariant digital filtering of frequencies below 2 Hz and above 100 Hz to minimize signal environmental disturbances. The software uses a peak detection algorithm to find the peak of the R-waves and to calculate heart-rate (HR). The inverted and/or biphasic portions of the T wave was included in calculations of the QT interval. The QT intervals were rate corrected (QTc) by an algorithm developed for use in mice. The software plots its interpretation of P, Q, R, S, and T for each beat so that spurious data resulting from unfiltered noise or motion artifacts may be rejected. The mean of the ECG time intervals for each set of waveforms is then calculated.
# (§3) Heart-rate variability (HRV) was calculated as the standard deviation of all R—R intervals for each set of ECG signals. The coefficient of variance (CV,%) was calculated as the ratio of mean HRV to mean heart-rate.
# Parasympathetic and sympathetic nervous system control of heart-rate regulation were investigated by pharmacological blockade. Mice received intraperitoneal administration of atropine (0.5 mg/kg) for parasympathetic blockade (n=15 mdx, n=15 C57), propranolol (1 mg/kg) for sympathetic blockade (n=10 mdx, n=7 C57), and atropine (0.5 mg/kg) plus propranolol (1 mg/kg) for combined β-adrenergic and muscarinic cholinergic blockade (n=10 mdx, n=7 C57). Baseline ECGs were recorded within 5 min prior to each administration and after a 5-10 min equilibrium phase after drug administration to allow for HR stabilization. The pharmacological interventions were performed on different days to prevent interference between drugs. […]
# To study the effect of autonomic blockers on dystrophin deficient mice, parasympathetic and sympathetic nervous system control of heart-rate regulation were investigated by pharmacological blockade. […] Baseline ECGs were recorded within 5 min prior to each administration and after a 5-10 min equilibrium phase after drug administration to allow for HR stabilization.
# mdx mice [3] = assay: Autonomic blockade, ECG heart rate and heart-rate variability in conscious mdx mice; type: in vivo, mouse
# Protocol: as §1, §2
# (§4) Analyses of the ECGs were performed as described as follows. Each signal was analyzed using e-MOUSE, internet-based physiologic waveform analyses software. […] The mean of the ECG time intervals for each set of waveforms is then calculated.
# as §3
# Parasympathetic and sympathetic nervous system control of heart-rate regulation were investigated by pharmacological blockade. […] Baseline ECGs were recorded within 5 min prior to each administration and after a 5-10 min equilibrium phase after drug administration to allow for HR stabilization. […]
# nNOS -/- mice [4] = assay: Baroreflex pressor response to phenylephrine in nNOS -/- mice; type: in vivo, mouse
# B6129 mice = assay: Baroreflex pressor response to phenylephrine in B6129 control mice; type: in vivo, mouse
# C57 mice [5] = assay: Baroreflex pressor response to phenylephrine after β-adrenergic blockade in C57 mice; type: in vivo, mouse; conditions: phenylephrine 3 mg/kg i.p. after propranolol 1 mg/kg
# Protocol: as §2
# as §4, with “software. The program incorporates Fourier analyses and linear time-invariant digital filtering of frequencies below 2 Hz and above 100 Hz to minimize signal environmental disturbances.” for “software.”
# as §3
# (§5) Mice were administered intraperitoneal phenylephrine (3 mg/kg) after β-adrenergic blockade with propranolol (1 mg/kg) to test for a baroreflex-mediated cardio-inhibitory response (n=10 mdx, n=7 C57).16,21 After baseline recordings, ECGs were recorded after a 5-10 min equilibrium phase following propranolol administration to allow for HR stabilization, and then within 2 min following phenylephrine administration. Changes in ECG indices following phenylephrine were determined relative to those recorded following propranolol administration. […]
# mdx mice [6] = assay: Baroreflex pressor response to phenylephrine after β-adrenergic blockade in mdx mice; type: in vivo, mouse; conditions: phenylephrine 3 mg/kg i.p. after propranolol 1 mg/kg
# Protocol: as §2
# as §4, with “software. The program incorporates Fourier analyses and linear time-invariant digital filtering of frequencies below 2 Hz and above 100 Hz to minimize signal environmental disturbances.” for “software.”
# as §3, §5
# [7] = C57 mice, i.p., 5-10 min after drug vs baseline, atropine 0.5 mg/kg, propranolol 1 mg/kg
# [8] = phenylephrine after propranolol
# [9] = within 2 min, relative to post-propranolol
structure (smiles),measurement,setting,value
CN1[C@@H]2CC[C@H]1C[C@@H](OC(=O)C(CO)c1ccccc1)C2 (stereo partly shown) [atropine],directional change in HR in response to drug,nNOS -/- mice [1]; FIG. 5,significantly increased HR
same,HR after atropine administration,"nNOS -/- mice [1]; baseline 686±22 bpm, P=0.07",721±12 bpm
same,HRV after atropine administration,"nNOS -/- mice [1]; from 2.6±0.1 ms, P<0.05",0.7 ± 0.1 ms
same,CV after atropine administration,"nNOS -/- mice [1]; from 2.7±0.8%, P<0.05",0.8±0.1%
same,direction of heart-rate change in individual mice,"C57 mice [2]; C57 mice n=15, atropine 0.5 mg/kg i.p.",increased in all but 2 of the C57 mice
same,HRV after atropine administration,"C57 mice [2]; C57 mice, atropine 0.5 mg/kg i.p., baseline 2.7±0.9 ms",0.5 ± 0.9 ms
same,change in HRV,C57 mice [2]; [7],-1.6 ± 0.7 ms
same,direction of heart-rate change in individual mice,"mdx mice [3]; mdx mice n=15, atropine 0.5 mg/kg i.p.",decreased in all 15 mdx mice
same,HR decreased by,"mdx mice [3]; mdx mice, atropine 0.5 mg/kg i.p., FIG. 2a legend",90±14 bpm
CNC[C@H](O)c1cccc(O)c1 [phenylephrine],increase in HRV after phenylephrine,nNOS -/- mice [4]; Example 4,+13.3±3.7 ms
same,change in HR after phenylephrine,nNOS -/- mice [4]; [8],−288±39 bpm
same,increase in HRV after phenylephrine,B6129 mice; Example 4,+11.8±3.7 ms
same,change in HR after phenylephrine,B6129 mice; [8],−360±6 bpm
same,CV after phenylephrine administration,C57 mice [5],15.8±2.4%
same,HRV after phenylephrine administration,C57 mice [5],28.6 ± 4.1 ms
same,change in HR after phenylephrine,C57 mice [5]; [9],−312±27 bpm
same,CV after phenylephrine administration,mdx mice [6],6.0±1.7%
same,HRV after phenylephrine administration,mdx mice [6],8.5 ± 2.5 ms
same,change in HR after phenylephrine,mdx mice [6]; [9],−132±27 bpm
CC(C)NCC(O)COc1cccc2ccccc12 (stereo not shown) [propranolol],change in HRV,C57 mice [2]; [7],more significant in C57 than mdx mice
same,change in HR,"C57 mice [2]; C57 mice, i.p., 5-10 min after drug vs baseline, atropine 0.5 mg/kg, propranolol 1 mg/kg, mean±SE",−122±53 bpm
same,change in HR,"mdx mice [3]; mdx mice, i.p., 5-10 min after drug vs baseline, atropine 0.5 mg/kg, propranolol 1 mg/kg, mean±SE",−60±27 bpm
